Converted amounts (≈) assume the structure as drawn. Like-named read-outs stand apart in the source and are kept apart here.
What was measured:
mice [1] = test: Reserpine antagonism test on mice; format: in vivo, mouse; settings: in words
Excerpt: (§1) The pharmacological activity of the substance according to the invention was investigated in the tetrabenazine catalepsy test and in the reserpine antagonism test at the mouse.

mice [2] = test: Tetrabenazine catalepsy test on mice, influence on the duration of catalepsy; format: in vivo, mouse; settings: for Effect in tetrabenazine catalepsy test compared with imipramine: in words
Experimental: as §1
Mice in groups of 10 animals each were given 15 mg/kg of tetrabenazine i.p. 30 minutes after administration of the test substance. The onset of a cataleptic condition is assessed on a 2-step round cork on to which the animals are placed so that they touch the bottom step with their head and forepaws and the upper step with their hind paws. Such a position is corrected immediately by a normal animal. For assessment, the reaction of the animals is observed every 60 seconds. The inhibition of catatonia is calculated in percentage values in relation to a control group.

[3] = test system: isolated guinea-pig heart; test: Activity on the isolated guinea-pig heart (Langendorff): coronary circulation and contraction level; settings: for Effect on coronary vessels / circulation / Influence on contraction level of the isolated heart: in words
[4] = Side-effect activities (cardiotoxic, central nervous system, sedation, vegetative nervous system); settings: therapeutically relevant doses
[5] = test system: isolated guinea-pig intestines; test: Spasmolytic activity on isolated guinea-pig intestines (Magnus); settings: for IC50: Cavia porcellus
Experimental: The compound according to the invention has also been examined for its influenece on coronary circulation and on the heart mechanogram in isolated guinea-pig hearts according to the method of Langendorff (Langendorff, O., Pfluegers Arch. 61 (1895), 219) as well as for its spasmolytic activity on isolated guinea-pig intestines according to the method of Magnus (Magnus, R., Pflugers Arch. 102 (1904), 123). In this latter case, the spasmolytic activity was determined in relation to 0.2 μg/ml of histamine and 100 μg/ml of barium chloride.

mice [6] = settings: mouse, in vivo, po
mice [7] = test: Acute toxicity test on mice (LD50); settings: in words
[8] = Acute toxicity test on mice (LD50); settings: mouse, in vivo
[9] = against 0.2 μg/ml histamine, read-out: Spasmolytic activity as ED50 relative to histamine
[10] = against 100 μg/ml barium chloride, read-out: Spasmolytic activity as ED50 relative to BaCl2

Which “Activity in reserpine antagonism test compared with comparison substance” value (mice [1]) does the source give for COc1ccc2oc(C(=O)N3CCN(Cc4ccccc4)CC3)cc2c1 [According to the invention, N-(5-Methoxybenzofuran-2-ylcarbonyl)-N'-benzylpiperazine] here?
Its value is “substantially equal in activity compared with the comparison substance”.

And the “Change of duration of catalepsy relative to control” value (mice [2]; 20 mg/kg p.o., 20 min post appl., n=40)?
The value was -62 ± 26%.

What about the “Effect in tetrabenazine catalepsy test compared with imipramine” value (mice [2]) of the same molecule?
Its value is “substantially stronger effect than the comparison substance”.

What about the “Effect in tetrabenazine catalepsy test compared with imipramine” value (mice [2]; listed as substance according to the invention) of the same molecule?
Its value is “substantially stronger effect than the commercially available comparison substance, imipramine”.

What about the activation at 0.05 mg ([3]; Cavia porcellus, dose 50 μg, read-out: Change in coronary circulation) of the same molecule?
The activation at 0.05 mg was 39%.

And the inhibition at 0.05 mg ([3]; Cavia porcellus, dose 50 μg, read-out: Influence on contraction level)?
Its inhibition at 0.05 mg is 0%.

What about the “Effect on coronary vessels / circulation” value [3] of the same molecule?
Its value is “causes a dilation of the coronary vessels”.

And the “Influence on contraction level of the isolated heart” value [3]?
The value was “does not influence the contraction level of the isolated heart”.

What about the Cardiotoxic activity [4] of the same molecule?
The Cardiotoxic activity was “has not shown in therapeutically relevant doses any cardiotoxic”.

What about the “Central nervous system stimulation activity” value [4] of the same molecule?
The value was “has not shown”.

What about the “Influence on the vegetative nervous system” value [4] of the same molecule?
The value was “has not shown”.

What about the Sedation activity [4] of the same molecule?
Its Sedation activity is “has not shown”.

What about the IC50 [5, 9] of the same molecule?
The IC50 was 5 to 10 µg/mL (≈ 14.3 to 28.5 µM).

And the IC50 [5, 10]?
Its IC50 is 5 to 10 µg/mL (≈ 14.3 to 28.5 µM).

And the Spasmolytic activity ([5]; in words)?
The Spasmolytic activity was “only small”.

What about the “Influence on the peripheral vegetative nervous system” value ([5]; in words, concluded from spasmolytic activity) of the same molecule?
The value was “influenced only slightly, if at all”.

And the “Compatibility (tolerability) compared with comparison preparation” value (mice [6])?
Its value is “more than ten times more compatible than the comparison preparation”.

What about the “Toxicity compared with imipramine” value (mice [7]) of the same molecule?
Its value is “considerably lower toxicity”.

What about the LD50 ([8]; ip) of the same molecule?
The LD50 was 548 mg/kg.

And the LD50 ([8]; po)?
Its LD50 is > 4000 mg/kg.

What does the source list for CN(C)CCCN1c2ccccc2CCc2ccccc21 [Imipramine]?
activation at 0.01 mg ([3]; Cavia porcellus, dose 10 μg, first value of pair, read-out: Change in coronary circulation (initial brief increase)): 19%; inhibition at 0.01 mg ([3]; Cavia porcellus, dose 10 μg, read-out: Influence on contraction level): 25%; inhibition at 0.01 mg ([3]; Cavia porcellus, dose 10 μg, second value of pair, read-out: Change in coronary circulation (subsequent constriction)): 18%; activation at 0.02 mg ([3]; Cavia porcellus, dose 20 μg, first value of pair, read-out: Change in coronary circulation (initial brief increase)): 28%; inhibition at 0.02 mg ([3]; Cavia porcellus, dose 20 μg, read-out: Influence on contraction level): 25%; inhibition at 0.02 mg ([3]; Cavia porcellus, dose 20 μg, second value of pair, read-out: Change in coronary circulation (subsequent constriction)): 29%; activation at 0.03 mg ([3]; Cavia porcellus, dose 30 μg, first value of pair, read-out: Change in coronary circulation (initial brief increase)): 84%; inhibition at 0.03 mg ([3]; Cavia porcellus, dose 30 μg, read-out: Influence on contraction level): 50%; inhibition at 0.03 mg ([3]; Cavia porcellus, dose 30 μg, second value of pair, read-out: Change in coronary circulation (subsequent constriction)): 22%; Effect on coronary vessels / circulation [3]: causes initially a brief increase in circulation, this then changes to a constriction; Influence on contraction level of the isolated heart [3]: heart damage which is shown by the reduction of the heart contraction; IC50 [5, 9]: 0.001 µg/mL (≈ 0.00357 µM); IC50 [5, 10]: 0.1 to 1 µg/mL (≈ 0.357 to 3.57 µM)
